The record followed here is US20250059171A1 (Hoffmann-La Roche Inc., priority 2021, published 2025).

The target in one assay is SARS-CoV-2 3CLpro (Severe acute respiratory syndrome coronavirus 2, UniProt P0DTD1). Put plainly: biochemical.
The next assay concerns the target HCoV-229E 3CLpro (Human coronavirus 229E, UniProt P0C6X1). Put plainly: HCoV-229E 3CLpro inhibition assay (FRET). It is filed as biochemical.
Another assay concerns the target MERS-CoV 3CLpro (Middle East respiratory syndrome-related coronavirus, UniProt K9N7C7). Put plainly: biochemical.
The target in another assay is SARS-CoV 3CLpro (Severe acute respiratory syndrome coronavirus, UniProt P0C6X7). Put plainly: biochemical.

Sequence of MERS-CoV 3CLpro (K9N7C7 3248-3553): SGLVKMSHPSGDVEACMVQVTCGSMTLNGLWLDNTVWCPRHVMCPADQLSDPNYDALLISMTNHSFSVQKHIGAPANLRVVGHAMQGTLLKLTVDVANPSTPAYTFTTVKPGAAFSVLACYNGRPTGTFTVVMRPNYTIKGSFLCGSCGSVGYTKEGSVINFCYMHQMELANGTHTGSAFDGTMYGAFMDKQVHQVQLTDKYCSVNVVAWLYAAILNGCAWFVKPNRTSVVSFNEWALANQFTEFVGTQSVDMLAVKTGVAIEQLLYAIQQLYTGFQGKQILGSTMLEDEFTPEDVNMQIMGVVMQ
Sequence of HCoV-229E 3CLpro (P0C6X1 2966-3267): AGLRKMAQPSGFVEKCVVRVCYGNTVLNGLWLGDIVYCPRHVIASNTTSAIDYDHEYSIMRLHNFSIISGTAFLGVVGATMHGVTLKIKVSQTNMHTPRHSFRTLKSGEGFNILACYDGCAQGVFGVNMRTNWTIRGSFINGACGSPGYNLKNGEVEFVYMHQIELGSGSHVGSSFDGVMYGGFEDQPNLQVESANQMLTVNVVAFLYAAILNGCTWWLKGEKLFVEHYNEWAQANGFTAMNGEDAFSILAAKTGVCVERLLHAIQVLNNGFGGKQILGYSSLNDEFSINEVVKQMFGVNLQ

The term IC50 denotes the concentration at which inhibition is half-maximal. For the compound `CC[C@@H](C)[C@H](NC(=O)C1(F)CC1)C(=O)N1C[C@H]2[C@@H]([C@H]1C(=O)NN(C[C@@H]1CCNC1=O)C(=O)[C@H](F)Cl)C2(C)C` [Example 115, N-[(1S,2R)-1-[(1R,2S,5S)-2-[[[(2R)-2-chloro-2-fluoro-acetyl]-[[(3S)-2-oxopyrrolidin-3-yl]methyl]amino]carbamoyl]-6,6-dimethyl-3-azabicyclo[3.1.0]hexane-3-carbonyl]-2-methyl-butyl]-1-fluoro-cyclopropanecarboxamide], the 50% inhibitory concentration (IC50) worked out at 0.009 µM on SARS-CoV-2 3CLpro, 0.03 µM against HCoV-229E 3CLpro, 0.102 µM at MERS-CoV 3CLpro and 0.015 µM against SARS-CoV 3CLpro.

Regarding `CC1(C)C[C@@H](C(=O)NN(C[C@@H]2CCNC2=O)C(=O)[C@H](F)Cl)N(C(=O)[C@@H](NC(=O)C(F)(F)F)C(C)(C)C)C1` [Example 8, N-[(1S)-1-[(2S)-2-[[[(2R)-2-chloro-2-fluoro-acetyl]-[[(3S)-2-oxopyrrolidin-3-yl]methyl]amino]carbamoyl]-4,4-dimethyl-pyrrolidine-1-carbonyl]-2,2-dimethyl-propyl]-2,2,2-trifluoro-acetamide], the concentration for half-maximal inhibition (IC50) against SARS-CoV-2 3CLpro came out at 0.01 µM; on HCoV-229E 3CLpro it was 0.042 µM; against MERS-CoV 3CLpro it was 0.136 µM; against SARS-CoV 3CLpro, 0.025 µM.

Take `CC[C@H](C)[C@H](NC(=O)C(F)(F)F)C(=O)N1C[C@H]2[C@@H]([C@H]1C(=O)NN(C[C@@H]1CCNC1=O)C(=O)[C@H](F)Cl)C2(C)C` [Example 63, N-[(1S,2S)-1-[(1R,2S,5S)-2-[[[(2R)-2-chloro-2-fluoro-acetyl]-[[(3S)-2-oxopyrrolidin-3-yl]methyl]amino]carbamoyl]-6,6-dimethyl-3-azabicyclo[3.1.0]hexane-3-carbonyl]-2-methyl-butyl]-2,2,2-trifluoro-acetamide]: the half-inhibitory concentration (IC50) is 0.009 µM against SARS-CoV-2 3CLpro, 0.018 µM against HCoV-229E 3CLpro, 0.06 µM on MERS-CoV 3CLpro and 0.011 µM at SARS-CoV 3CLpro.

On to `CCC(C)(C)[C@H](NC(=O)C1CC1)C(=O)N1C[C@H]2[C@@H]([C@H]1C(=O)NN(C[C@@H]1CCCNC1=O)C(=O)[C@H](F)Cl)C2(C)C` [Example 169a, N-[(1S)-1-[(1R,2S,5S)-2-[[[(2R)-2-chloro-2-fluoro-acetyl]-[[(3S)-2-oxo-3-piperidyl]methyl]amino]carbamoyl]-6,6-dimethyl-3-azabicyclo[3.1.0]hexane-3-carbonyl]-2,2-dimethyl-butyl]cyclopropanecarboxamide], for which the 50% inhibitory concentration (IC50) against SARS-CoV-2 3CLpro was 0.009 µM; on HCoV-229E 3CLpro, 0.056 µM; at MERS-CoV 3CLpro, 0.118 µM; on SARS-CoV 3CLpro it was 0.02 µM.

On to `CCC(CC)[C@H](NC(=O)C1CC1)C(=O)N1C[C@@H]2CCC[C@@H]2[C@H]1C(=O)NN(C[C@@H]1CCNC1=O)C(=O)[C@H](F)Cl` [Example 135, N-[(1S)-1-[(3S,3aS,6aR)-3-[[[(2R)-2-chloro-2-fluoro-acetyl]-[[(3S)-2-oxopyrrolidin-3-yl]methyl]amino]carbamoyl]-3,3a,4,5,6,6a-hexahydro-1H-cyclopenta[c]pyrrole-2-carbonyl]-2-ethyl-butyl]cyclopropanecarboxamide], for which the IC50 at SARS-CoV-2 3CLpro is 0.011 µM; at HCoV-229E 3CLpro, 0.039 µM; against MERS-CoV 3CLpro it was 0.131 µM; on SARS-CoV 3CLpro it was 0.015 µM.

In the case of `CC[C@@H](C)[C@H](NC(=O)[C@@H](C)F)C(=O)N1C[C@H]2[C@@H]([C@H]1C(=O)NN(C[C@@H]1CCNC1=O)C(=O)[C@@H](F)Cl)C2(C)C` [Example 123, (2R)—N-[(1S,2R)-1-[(1R,2S,5S)-2-[[[(2S)-2-chloro-2-fluoro-acetyl]-[[(3S)-2-oxopyrrolidin-3-yl]methyl]amino]carbamoyl]-6,6-dimethyl-3-azabicyclo[3.1.0]hexane-3-carbonyl]-2-methyl-butyl]-2-fluoro-propanamide], the IC50 was 0.037 µM at SARS-CoV-2 3CLpro, 0.051 µM on HCoV-229E 3CLpro, 0.146 µM against MERS-CoV 3CLpro and 0.062 µM against SARS-CoV 3CLpro.

Consider `CCC(C)(C)[C@H](NC(=O)C(F)F)C(=O)N1C[C@@H]2CCC[C@@H]2[C@H]1C(=O)NN(C[C@@H]1CCNC1=O)C(=O)[C@H](F)Cl` [Example 151, N-[(1S)-1-[(3S,3aS,6aR)-3-[[[(2R)-2-chloro-2-fluoro-acetyl]-[[(3S)-2-oxopyrrolidin-3-yl]methyl]amino]carbamoyl]-3,3a,4,5,6,6a-hexahydro-1H-cyclopenta[c]pyrrole-2-carbonyl]-2,2-dimethyl-butyl]-2,2-difluoro-acetamide], for which the IC50 against SARS-CoV-2 3CLpro was 0.013 µM; on HCoV-229E 3CLpro it was 0.031 µM; on MERS-CoV 3CLpro, 0.067 µM; at SARS-CoV 3CLpro it was 0.014 µM.

Consider `CCC(C)(C)[C@H](NC(=O)C(F)F)C(=O)N1C[C@H]2[C@@H]([C@H]1C(=O)NN(C[C@@H]1CCNC1=O)C(=O)[C@@H](F)Cl)C2(C)C` [Example 148, N-[(1S)-1-[(1R,2S,5S)-2-[[[(2S)-2-chloro-2-fluoro-acetyl]-[[(3S)-2-oxopyrrolidin-3-yl]methyl]amino]carbamoyl]-6,6-dimethyl-3-azabicyclo[3.1.0]hexane-3-carbonyl]-2,2-dimethyl-butyl]-2,2-difluoro-acetamide], for which the half-maximal inhibitory concentration (IC50) came out at 0.013 µM against SARS-CoV-2 3CLpro, 0.03 µM at HCoV-229E 3CLpro, 0.13 µM against MERS-CoV 3CLpro and 0.02 µM against SARS-CoV 3CLpro.

As to `CC[C@H](C)[C@H](NC(=O)C(F)(F)F)C(=O)N1C[C@H]2[C@@H]([C@H]1C(=O)NN(C[C@@H]1CCCNC1=O)C(=O)[C@H](F)Cl)C2(C)C` (single isomer, unassigned) [Example 165a], the IC50 against SARS-CoV-2 3CLpro amounted to 0.011 µM; at HCoV-229E 3CLpro, 0.038 µM; against MERS-CoV 3CLpro, 0.185 µM; at SARS-CoV 3CLpro, 0.012 µM.

Take `CC[C@H](C)[C@H](NC(=O)C1(F)CC1)C(=O)N1C[C@H](C(F)(F)F)C[C@H]1C(=O)NN(C[C@@H]1CCNC1=O)C(=O)[C@H](F)Cl` [Example 160, N-[(1S,2S)-1-[(2S,4R)-2-[[[(2R)-2-chloro-2-fluoro-acetyl]-[[(3S)-2-oxopyrrolidin-3-yl]methyl]amino]carbamoyl]-4-(trifluoromethyl)pyrrolidine-1-carbonyl]-2-methyl-butyl]-1-fluoro-cyclopropanecarboxamide]: the IC50 was 0.013 µM against SARS-CoV-2 3CLpro, 0.024 µM against HCoV-229E 3CLpro, 0.105 µM at MERS-CoV 3CLpro and 0.019 µM against SARS-CoV 3CLpro.

As for `CC(C)(C)[C@H](NC(=O)C(F)(F)F)C(=O)N1C[C@H]2[C@@H]([C@H]1C(=O)NN(C[C@H]1CCCNC1=O)C(=O)[C@H](F)Cl)C2(C)C` (single isomer, unassigned) [Example 163a], the concentration for half-maximal inhibition (IC50) came to 0.009 µM on SARS-CoV-2 3CLpro, 0.052 µM on HCoV-229E 3CLpro, 0.226 µM against MERS-CoV 3CLpro and 0.018 µM against SARS-CoV 3CLpro.

As to `CC[C@H](C)[C@H](NC(=O)[C@H](F)Cl)C(=O)N1C[C@@H]2CCC[C@@H]2[C@H]1C(=O)NN(C[C@H]1CCCNC1=O)C(=O)[C@H](F)Cl` [Example 192, (2R)—N-[(1S,2S)-1-[(3S,3aS,6aR)-3-[[[(2R)-2-chloro-2-fluoro-acetyl]-[[(3R)-2-oxo-3-piperidyl]methyl]amino]carbamoyl]-3,3a,4,5,6,6a-hexahydro-1H-cyclopenta[c]pyrrole-2-carbonyl]-2-methyl-butyl]-2-chloro-2-fluoro-acetamide], the IC50 is 0.01 µM on SARS-CoV-2 3CLpro, 0.052 µM against HCoV-229E 3CLpro, 0.148 µM at MERS-CoV 3CLpro and 0.017 µM against SARS-CoV 3CLpro.

Consider `CC[C@H](C)[C@H](NC(=O)[C@@H](F)Cl)C(=O)N1C[C@H]2[C@@H]([C@H]1C(=O)NN(C[C@@H]1CCCNC1=O)C(=O)[C@@H](F)Cl)C2(C)C` [Example 189, (2S)-2-chloro-N-[(1S,2S)-1-[(1R,2S,5S)-2-[[[(2S)-2-chloro-2-fluoro-acetyl]-[[(3S)-2-oxo-3-piperidyl]methyl]amino]carbamoyl]-6,6-dimethyl-3-azabicyclo[3.1.0]hexane-3-carbonyl]-2-methyl-butyl]-2-fluoro-acetamide], for which the 50% inhibitory concentration (IC50) on SARS-CoV-2 3CLpro was determined as 0.008 µM; against HCoV-229E 3CLpro, 0.024 µM; against MERS-CoV 3CLpro, 0.05 µM; on SARS-CoV 3CLpro, 0.01 µM.

As for `CCC(=O)N[C@H](C(=O)N1C[C@@H]2CCC[C@@H]2[C@H]1C(=O)NN(C[C@@H]1CCNC1=O)C(=O)[C@H](F)Cl)C(C)(C)C` [Example 32, N-[(1S)-1-[(3S,3aS,6aR)-3-[[[(2R)-2-chloro-2-fluoro-acetyl]-[[(3S)-2-oxopyrrolidin-3-yl]methyl]amino]carbamoyl]-3,3a,4,5,6,6a-hexahydro-1H-cyclopenta[c]pyrrole-2-carbonyl]-2,2-dimethyl-propyl]propanamide], the IC50 at SARS-CoV-2 3CLpro came out at 0.007 µM; against HCoV-229E 3CLpro, 0.023 µM; against MERS-CoV 3CLpro it was 0.08 µM; on SARS-CoV 3CLpro it was 0.01 µM.

For the compound `CC(F)(F)C(=O)N[C@H](C(=O)N1C[C@@H]2CCC[C@@H]2[C@H]1C(=O)NN(C[C@@H]1CCNC1=O)C(=O)[C@H](F)Cl)C(C)(C)C` [Example 30, N-[(1S)-1-[(3S,3aS,6aR)-3-[[[(2R)-2-chloro-2-fluoro-acetyl]-[[(3S)-2-oxopyrrolidin-3-yl]methyl]amino]carbamoyl]-3,3a,4,5,6,6a-hexahydro-1H-cyclopenta[c]pyrrole-2-carbonyl]-2,2-dimethyl-propyl]-2,2-difluoro-propanamide], the IC50 is 0.008 µM against SARS-CoV-2 3CLpro, 0.049 µM at HCoV-229E 3CLpro, 0.143 µM against MERS-CoV 3CLpro and 0.015 µM at SARS-CoV 3CLpro.

`CC[C@H](C)[C@H](NC(=O)C1CC(F)(F)C1)C(=O)N1C[C@H]2[C@@H]([C@H]1C(=O)NN(C[C@@H]1CCNC1=O)C(=O)[C@@H](F)Cl)C2(C)C` [Example 108, N-[(1S,2S)-1-[(1R,2S,5S)-2-[[[(2S)-2-chloro-2-fluoro-acetyl]-[[(3S)-2-oxopyrrolidin-3-yl]methyl]amino]carbamoyl]-6,6-dimethyl-3-azabicyclo[3.1.0]hexane-3-carbonyl]-2-methyl-butyl]-3,3-difluoro-cyclobutanecarboxamide]: the IC50 against SARS-CoV-2 3CLpro was found to be 0.043 µM; against HCoV-229E 3CLpro, 0.05 µM; on MERS-CoV 3CLpro, 0.127 µM; on SARS-CoV 3CLpro, 0.074 µM.
